Tested on: rabbits
Experiment: Rabbit pyrogenicity test (surrogate measure of incorporation into liposomes)
Assay type: in vivo
Details: free (non-liposomal) CRX-601
Procedure: The tests were performed at Pacific Biolabs (Hercules, Calif.) as per their SOP 16E-02.

CCCCCCCCCCC[C@H](CC(=O)N[C@H]1[C@H](OC[C@H](NC(=O)C[C@@H](CCCCCCCCCCC)OCCCCCCCCCC)C(=O)O)O[C@H](CO)[C@@H](OP(=O)(O)O)[C@@H]1OC(=O)C[C@@H](CCCCCCCCCCC)OCCCCCCCCCC)OCCCCCCCCCC [CRX-601]
max non-pyrogenic dose: 0.0025 µg/kg

Source: patent US20170071967A1, “IMMUNOGENIC LIPOSOMAL FORMULATION” (GlaxoSmithKline Biologicals, SA, priority 2014, published 2017)
